These results are taken from BindingDB's records for doi:10.1016/s0014-2999(02)01314-6 (Takeda Chemical Industries, 2002).

The test has as its target Melanin-concentrating hormone receptor 1 (Rattus norvegicus, UniProt P97639).

Each structure is given as a SMILES string.

Sequence of Melanin-concentrating hormone receptor 1 (P97639 whole entry): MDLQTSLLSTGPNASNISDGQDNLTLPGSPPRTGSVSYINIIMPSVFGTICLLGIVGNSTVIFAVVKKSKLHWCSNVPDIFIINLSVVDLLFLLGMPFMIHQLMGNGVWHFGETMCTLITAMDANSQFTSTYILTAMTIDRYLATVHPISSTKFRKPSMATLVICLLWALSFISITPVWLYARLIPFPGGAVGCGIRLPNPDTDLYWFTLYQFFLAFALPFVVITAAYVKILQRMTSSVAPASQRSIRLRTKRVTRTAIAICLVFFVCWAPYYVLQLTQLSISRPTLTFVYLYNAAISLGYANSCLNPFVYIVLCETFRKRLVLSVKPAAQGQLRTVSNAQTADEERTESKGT

For the compound `CN(C)CC1CCc2cc(NC(=O)c3ccc(-c4ccc(F)cc4)cc3)ccc2C1` (stereo unspecified) [4''-Fluoro-biphenyl-4-carboxylic acid (6-dimethylaminomethyl-5,6,7,8-tetrahydro-naphthalen-2-yl)-amide], the affinity, expressed as Ki, was 8.6 nM.

As usually defined, the Ki is the dissociation constant of the complex between target and ligand, obtained from inhibition or displacement.
